The results in this text go back to PubChem BioAssay AID1557 (Sanford-Burnham Center for Chemical Genomics, 2009).

For this data set, the system named is PAMPA artificial membrane permeability, UV readout, 30 min. Briefly: PAMPA effective permeability – biophysical, pH 7.4, 6.2, 5.0, ADME assay, late-stage follow-up (AID 1557). The note with it: at 50 µM, stronger effect = higher value. (In PAMPA a lipid-coated filter parts donor from acceptor wells.)

Active and inactive are the calls of the source. How the calls were made is not given here.

With `C=CCn1c(SCC(=O)c2ccc(O)c(O)c2)nnc1-c1ccccc1OC`, the effective permeability pH 7.4 is 58 10-6 cm/s (inactive). Besides, the effective permeability pH 5.0 (measured here: permeability at pH 5.0) was 90 10-6 cm/s. The effective permeability pH 6.2 (measured here: permeability at pH 6.2) is 98 10-6 cm/s.
